Source: paper PMC8296573, “Synthesis and Biological Evaluation of Fingolimod Derivatives as Antibacterial Agents” (ACS Omega, 2021)
Converted amounts (≈) assume the structure as drawn. Where two headings read alike, the source gives them in different places.

Columns and labels:
S. aureus ATCC 25923 [1] = assay: Antibacterial activity, post-exposure on preformed 18-h-old biofilms; format: cell-based, Staphylococcus aureus; details: ± SD; for inhibition at 25 µM / inhibition at 50 µM / inhibition at 100 µM / inhibition at 200 µM: Staphylococcus aureus; for inhibition at 25 µM: ATCC25923, 25 µM; for inhibition at 50 µM: ATCC25923, 50 µM; for inhibition at 100 µM: ATCC25923, 100 µM; for inhibition at 200 µM: ATCC25923, 200 µM
Method in brief: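 Compounds were applied to preformed 18-h biofilms after medium change and left 24 h. Read-outs: planktonic OD plus resazurin fluorescence (20 μM), biofilm metabolic activity by resazurin 30 min at 37 °C, then biomass by crystal violet absorbance at 595 nm after ethanol fixation.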

S. aureus ATCC 25923 [2] = assay: Antibacterial activity, pre-exposure (planktonic cells and biofilm formation); format: cell-based, Staphylococcus aureus; details: for MIC / inhibition at 5 µM / inhibition at 10 µM / inhibition at 15 µM / inhibition at 25 µM: Staphylococcus aureus, ATCC25923; for inhibition at 5 µM / inhibition at 10 µM / inhibition at 15 µM / inhibition at 25 µM / Average inhibition %, biofilms viability / Average inhibition %, planktonic cells viability: pre-exposure, ± SD
Method in brief: (§1)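 Bacteria and compound were co-incubated from the start for 18 h at 37 °C, 220 rpm. Planktonic cells scored by turbidity plus resazurin reduction; washed biofilms scored by 20 μM resazurin (30, 60, 90 min for S. aureus, A. baumannii, P. aeruginosa) and ethanol-fixed crystal violet staining.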

A. baumannii NCTC 13423 = assay: Antibacterial activity, pre-exposure; format: cell-based, Acinetobacter baumannii; details: for Average inhibition %, biofilms viability / Average inhibition %, planktonic cells viability / inhibition at 10 µM / inhibition at 15 µM / inhibition at 25 µM / inhibition at 50 µM: A. baumannii NCTC 13423, pre-exposure, ± SD; for inhibition at 10 µM / inhibition at 15 µM / inhibition at 25 µM / inhibition at 50 µM / MIC: Acinetobacter baumannii, NCTC13423
Method in brief: as §1

P. aeruginosa ATCC 9027 = assay: Antibacterial activity, pre-exposure; format: cell-based, Pseudomonas aeruginosa; details: for Average inhibition %, biofilms viability / Average inhibition %, planktonic cells viability / inhibition at 50 µM / inhibition at 100 µM / inhibition at 150 µM / inhibition at 200 µM: P. aeruginosa ATCC 9027, pre-exposure, ± SD; for MIC / inhibition at 50 µM / inhibition at 100 µM / inhibition at 150 µM / inhibition at 200 µM: Pseudomonas aeruginosa; for inhibition at 50 µM / inhibition at 100 µM / inhibition at 150 µM / inhibition at 200 µM: ATCC9027
Method in brief: as §1

[3] = read-out: Average inhibition %, biofilms biomass
[4] = read-out: Average inhibition %, planktonic cells turbidity
[5] = 10 µM, read-out: Average inhibition %, biofilms biomass
[6] = 10 µM, read-out: Average inhibition %, planktonic cells turbidity
[7] = 15 µM, read-out: Average inhibition %, biofilms biomass
[8] = 15 µM, read-out: Average inhibition %, planktonic cells turbidity
[9] = 25 µM, read-out: Average inhibition %, biofilms biomass
[10] = 25 µM, read-out: Average inhibition %, planktonic cells turbidity
[11] = 50 µM, read-out: Average inhibition %, biofilms biomass
[12] = 50 µM, read-out: Average inhibition %, planktonic cells turbidity

MIC (S. aureus ATCC 25923 [2]; lowest concentration with no visible growth (>90% inhibition of turbidity and viability of planktonic cells), 18 h, read-out: MIC S. aureus ATCC 25923): 15 to 25 µM (≈ 4.85 to 8.09 µg/mL)
MIC (S. aureus ATCC 25923 [2]; read-out: MIC (S. aureus)): 15 to 25 µM (≈ 4.85 to 8.09 µg/mL)
MIC (A. baumannii NCTC 13423; pre-exposure, Inactive = no activity up to 50 μM, > = some inhibition but no MIC reached, read-out: MIC A. baumannii NCTC 13423): > 50 µM
MIC (A. baumannii NCTC 13423; supplementary molecular formula strings sheet, read-out: MIC (A. baumannii)): > 50 µM
MIC (P. aeruginosa ATCC 9027; ATCC9027, pre-exposure, Inactive = no activity up to 200 μM, > = some inhibition but no MIC reached, read-out: MIC P. aeruginosa ATCC 9027): > 200 µM
MIC (P. aeruginosa ATCC 9027; ATCC9027, supplementary molecular formula strings sheet, read-out: MIC (P. aeruginosa)): > 200 µM
Compound: CCCCCCCCOc1ccc(CCC(N)(CO)CO)cc1 [Compound 48, 2-Amino-2-[4-(octyloxy)phenethyl]propane-1,3-diol]
Average inhibition %, biofilms viability (S. aureus ATCC 25923 [1]; 25 µM): 21 ± 14.6%
Average inhibition %, planktonic cells viability (S. aureus ATCC 25923 [1]; 25 µM): 0.9 ± 1.6%
Average inhibition %, biofilms viability (S. aureus ATCC 25923 [1]; 50 µM): 42.3 ± 5.5%
Average inhibition %, planktonic cells viability (S. aureus ATCC 25923 [1]; 50 µM): 0 ± 0%
Average inhibition %, biofilms viability (S. aureus ATCC 25923 [1]; 100 µM): 52.5 ± 9.2%
Average inhibition %, planktonic cells viability (S. aureus ATCC 25923 [1]; 100 µM): 21.3 ± 18.5%
Average inhibition %, biofilms viability (S. aureus ATCC 25923 [1]; 200 µM): 52 ± 9.4%
Average inhibition %, planktonic cells viability (S. aureus ATCC 25923 [1]; 200 µM): 48.3 ± 23.5%
inhibition at 25 µM (S. aureus ATCC 25923 [1]; [3]): 47.6 ± 0.5%
inhibition at 25 µM (S. aureus ATCC 25923 [1]; [4]): 9.3 ± 10%
inhibition at 50 µM (S. aureus ATCC 25923 [1]; [3]): 57.8 ± 6.5%
inhibition at 50 µM (S. aureus ATCC 25923 [1]; [4]): 12.6 ± 10.9%
inhibition at 100 µM (S. aureus ATCC 25923 [1]; [3]): 65.9 ± 12.5%
inhibition at 100 µM (S. aureus ATCC 25923 [1]; [4]): 31.2 ± 10.9%
inhibition at 200 µM (S. aureus ATCC 25923 [1]; [3]): 72.5 ± 9.8%
inhibition at 200 µM (S. aureus ATCC 25923 [1]; [4]): 40 ± 13.2%
inhibition at 5 µM (S. aureus ATCC 25923 [2]; 5 µM, read-out: Average inhibition %, biofilms biomass): 28.7 ± 25.2%
inhibition at 5 µM (S. aureus ATCC 25923 [2]; 5 µM, read-out: Average inhibition %, planktonic cells turbidity): 13.6 ± 13.1%
inhibition at 10 µM (S. aureus ATCC 25923 [2]; [5]): 31.9 ± 24.6%
inhibition at 10 µM (S. aureus ATCC 25923 [2]; [6]): 40.8 ± 18.5%
inhibition at 15 µM (S. aureus ATCC 25923 [2]; [7]): 53.1 ± 42.8%
inhibition at 15 µM (S. aureus ATCC 25923 [2]; [8]): 47.2 ± 50%
inhibition at 25 µM (S. aureus ATCC 25923 [2]; [9]): 92 ± 5.9%
inhibition at 25 µM (S. aureus ATCC 25923 [2]; [10]): 97.4 ± 2.6%
Average inhibition %, biofilms viability (S. aureus ATCC 25923 [2]; 5 µM): 22.4 ± 5.4%
Average inhibition %, planktonic cells viability (S. aureus ATCC 25923 [2]; 5 µM): 0 ± 0%
Average inhibition %, biofilms viability (S. aureus ATCC 25923 [2]; 10 µM): 16.7 ± 15%
Average inhibition %, planktonic cells viability (S. aureus ATCC 25923 [2]; 10 µM): 20.3 ± 20.7%
Average inhibition %, biofilms viability (S. aureus ATCC 25923 [2]; 15 µM): 48.8 ± 44.2%
Average inhibition %, planktonic cells viability (S. aureus ATCC 25923 [2]; 15 µM): 36.9 ± 54.3%
Average inhibition %, biofilms viability (S. aureus ATCC 25923 [2]; 25 µM): 99.5 ± 0.8%
Average inhibition %, planktonic cells viability (S. aureus ATCC 25923 [2]; 25 µM): 99.7 ± 0.2%
Average inhibition %, biofilms viability (A. baumannii NCTC 13423; 10 µM): 0 ± 0%
Average inhibition %, planktonic cells viability (A. baumannii NCTC 13423; 10 µM): 5.1 ± 0.7%
Average inhibition %, biofilms viability (A. baumannii NCTC 13423; 15 µM): 1.4 ± 1.2%
Average inhibition %, planktonic cells viability (A. baumannii NCTC 13423; 15 µM): 0 ± 0%
Average inhibition %, biofilms viability (A. baumannii NCTC 13423; 25 µM): 68.3 ± 27.4%
Average inhibition %, planktonic cells viability (A. baumannii NCTC 13423; 25 µM): 48.6 ± 48.9%
Average inhibition %, biofilms viability (A. baumannii NCTC 13423; 50 µM): 93.8 ± 1.3%
Average inhibition %, planktonic cells viability (A. baumannii NCTC 13423; 50 µM): 97.8 ± 0.3%
inhibition at 10 µM (A. baumannii NCTC 13423; [5]): 0%
inhibition at 10 µM (A. baumannii NCTC 13423; [6]): 0%
inhibition at 15 µM (A. baumannii NCTC 13423; [7]): 0%
inhibition at 15 µM (A. baumannii NCTC 13423; [8]): 0%
inhibition at 25 µM (A. baumannii NCTC 13423; [9]): 38.9 ± 34.1%
inhibition at 25 µM (A. baumannii NCTC 13423; [10]): 63.2 ± 30.2%
inhibition at 50 µM (A. baumannii NCTC 13423; [11]): 56.9 ± 19.5%
inhibition at 50 µM (A. baumannii NCTC 13423; [12]): 94.4 ± 2.3%
Average inhibition %, biofilms viability (P. aeruginosa ATCC 9027; 50 µM): 27.9 ± 25.6%
Average inhibition %, planktonic cells viability (P. aeruginosa ATCC 9027; 50 µM): 28 ± 9%
Average inhibition %, biofilms viability (P. aeruginosa ATCC 9027; 100 µM): 20.3 ± 9.9%
Average inhibition %, planktonic cells viability (P. aeruginosa ATCC 9027; 100 µM): 76.1 ± 19.4%
Average inhibition %, biofilms viability (P. aeruginosa ATCC 9027; 150 µM): 17 ± 12.1%
Average inhibition %, planktonic cells viability (P. aeruginosa ATCC 9027; 150 µM): 88 ± 8.4%
Average inhibition %, biofilms viability (P. aeruginosa ATCC 9027; 200 µM): 12.2 ± 5.8%
Average inhibition %, planktonic cells viability (P. aeruginosa ATCC 9027; 200 µM): 93.5 ± 0.6%
inhibition at 50 µM (P. aeruginosa ATCC 9027; [11]): 14.7 ± 10.8%
inhibition at 50 µM (P. aeruginosa ATCC 9027; [12]): 18.6 ± 7.4%
inhibition at 100 µM (P. aeruginosa ATCC 9027; 100 µM, read-out: Average inhibition %, biofilms biomass): 29.1 ± 19.9%
inhibition at 100 µM (P. aeruginosa ATCC 9027; 100 µM, read-out: Average inhibition %, planktonic cells turbidity): 83.9 ± 2.6%
inhibition at 150 µM (P. aeruginosa ATCC 9027; 150 µM, read-out: Average inhibition %, biofilms biomass): 37.8 ± 2.9%
inhibition at 150 µM (P. aeruginosa ATCC 9027; 150 µM, read-out: Average inhibition %, planktonic cells turbidity): 85.6 ± 3.3%
inhibition at 200 µM (P. aeruginosa ATCC 9027; 200 µM, read-out: Average inhibition %, biofilms biomass): 36.9 ± 6.7%
inhibition at 200 µM (P. aeruginosa ATCC 9027; 200 µM, read-out: Average inhibition %, planktonic cells turbidity): 87.8 ± 4.2%
